From patent publication US7718686B2, “Imidazole variants as modulators of GABA receptor for the treatment of GI disorders” (AstraZeneca AB, priority 2004, dated 2010)

These compounds were tested against T1, GABAB receptor (Homo sapiens, UniProt O75899+Q9UBS5) (assay: [35S]-GTPγS binding assay with GABA in the presence or absence of PAM). Settings: log EC50 for GABA plotted against log concentration of the positive allosteric modulator; read-out: EC50 (potency of the positive allosteric modulator).
T1 construct: expressed in transfected cells; host or cells: CHO-K1 (membranes)
T1 sequence (Q9UBS5 15-961 limits assumed): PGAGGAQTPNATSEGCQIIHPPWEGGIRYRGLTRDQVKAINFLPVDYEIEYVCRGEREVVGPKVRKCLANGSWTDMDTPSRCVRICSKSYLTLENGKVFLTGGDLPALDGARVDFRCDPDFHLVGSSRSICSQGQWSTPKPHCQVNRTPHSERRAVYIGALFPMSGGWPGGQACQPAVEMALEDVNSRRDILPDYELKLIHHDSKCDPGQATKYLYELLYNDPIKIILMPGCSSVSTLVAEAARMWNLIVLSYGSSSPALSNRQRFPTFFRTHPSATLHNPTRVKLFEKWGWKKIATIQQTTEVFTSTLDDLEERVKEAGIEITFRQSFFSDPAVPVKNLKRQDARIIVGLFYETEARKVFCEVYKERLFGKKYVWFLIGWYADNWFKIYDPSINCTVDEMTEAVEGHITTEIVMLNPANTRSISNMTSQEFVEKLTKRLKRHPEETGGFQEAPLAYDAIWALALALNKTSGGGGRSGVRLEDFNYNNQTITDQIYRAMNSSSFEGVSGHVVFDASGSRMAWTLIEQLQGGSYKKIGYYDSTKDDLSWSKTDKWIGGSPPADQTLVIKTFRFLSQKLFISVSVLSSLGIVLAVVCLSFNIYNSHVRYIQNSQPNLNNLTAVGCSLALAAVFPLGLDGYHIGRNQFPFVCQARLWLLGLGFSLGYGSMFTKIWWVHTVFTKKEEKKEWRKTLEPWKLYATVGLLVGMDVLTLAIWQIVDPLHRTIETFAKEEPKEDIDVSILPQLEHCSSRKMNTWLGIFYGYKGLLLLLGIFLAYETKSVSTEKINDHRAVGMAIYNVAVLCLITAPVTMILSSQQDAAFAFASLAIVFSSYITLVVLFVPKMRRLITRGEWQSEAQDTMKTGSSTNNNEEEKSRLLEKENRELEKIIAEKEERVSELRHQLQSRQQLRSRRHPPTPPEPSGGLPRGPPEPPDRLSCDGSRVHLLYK
T1 sequence (O75899 42-941): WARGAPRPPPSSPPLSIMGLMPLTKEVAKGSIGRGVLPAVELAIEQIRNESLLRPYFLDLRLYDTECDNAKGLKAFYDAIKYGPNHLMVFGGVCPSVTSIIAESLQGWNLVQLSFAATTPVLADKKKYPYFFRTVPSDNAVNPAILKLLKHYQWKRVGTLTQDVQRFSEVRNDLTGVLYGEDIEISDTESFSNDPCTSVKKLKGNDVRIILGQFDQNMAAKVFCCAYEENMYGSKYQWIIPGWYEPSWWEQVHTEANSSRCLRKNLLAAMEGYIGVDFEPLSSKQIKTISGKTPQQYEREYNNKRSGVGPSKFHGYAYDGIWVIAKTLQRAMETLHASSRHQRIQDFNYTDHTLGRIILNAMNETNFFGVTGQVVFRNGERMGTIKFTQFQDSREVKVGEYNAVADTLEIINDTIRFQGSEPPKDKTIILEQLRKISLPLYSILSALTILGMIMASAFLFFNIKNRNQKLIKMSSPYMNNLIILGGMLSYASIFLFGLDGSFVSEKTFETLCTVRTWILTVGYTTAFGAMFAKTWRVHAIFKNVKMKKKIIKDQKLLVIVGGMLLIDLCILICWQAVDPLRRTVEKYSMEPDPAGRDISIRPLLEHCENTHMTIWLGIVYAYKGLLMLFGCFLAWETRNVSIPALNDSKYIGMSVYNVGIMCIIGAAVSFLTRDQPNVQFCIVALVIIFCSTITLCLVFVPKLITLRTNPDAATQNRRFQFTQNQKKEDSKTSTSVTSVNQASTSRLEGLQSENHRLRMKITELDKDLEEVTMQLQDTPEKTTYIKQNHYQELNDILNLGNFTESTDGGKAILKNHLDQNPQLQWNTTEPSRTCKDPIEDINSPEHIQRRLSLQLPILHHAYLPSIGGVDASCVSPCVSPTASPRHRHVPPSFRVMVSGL
Type: biochemical
Protocol: [^35S]-GTPγS binding assays were performed at 30° C. for 45 min in membrane buffer (100 mM NaCl, 5 mM MgCl2, 1 mM EDTA, 50 mM HEPES, pH 7.4) containing 0.025 μg/μl of membrane protein (prepared from the cell lines described above) with 0.01% bovine serum albumin (fatty acid free), 10 μM GDP, 100 μM DTT and 0.53 nM [^35S]-GTPγS (Amersham-Pharmacia Biotech) in a final volume of 200 μl. Non-specific binding was determined in the presence of 20 μM GTPγS. The reaction was started by the addition of GABA at concentration between 1 mM and 0.1 mM in the presence or absence of the required concentration of PAM. The reaction was terminated by addition of ice-cold wash buffer (50 mM Tris-HCl, 5 mM MgCl2, 50 mM NaCl, pH 7.4) followed by rapid filtration under vacuum through Printed Filtermat A glass fiber filters (Wallac) (0.05% PEI treated) using a Micro 96 Harvester (Skatron Instruments). The filters were dried for 30 min at 50° C., then a paraffin scintillant pad was melted onto the filters and the bound radioactivity was determined using a 1450 Microbeta Trilux (Wallac) scintillation counter.
GABA dose-response curves in the presence and absence of test compounds were constructed using the 4-parameter logistic equation, y=ymax+((ymin−ymax)/1+(x/C)^D) where C=EC50 and D=slope factor.
The potency of PAM in GTPγS assays was determined by plotting the log EC50 for GABA against the log concentration of the positive allosteric modulator in the presence of which the measurement was performed.
`CCCCC(C)(C)OC(=O)c1c(NC(=O)c2ccc(Cl)cc2)nc(SC)n1-c1ccccc1` [1,1-dimethylpentyl 4-[(4-chlorobenzoyl)amino]-2-(methylthio)-1-phenyl-1H-imidazole-5-carboxylate] was tested, and the EC50 was 300 nM. Compound `CCOC(=O)c1c(NC(=O)C(CC)c2ccccc2)nc(SC)n1-c1ccccc1` (stereo not shown) [1H-imidazole-5-carboxylic acid, 2-(methylthio)-4-[(1-oxo-2-phenylbutyl)amino]-1-phenyl-, ethyl ester] has an EC50 of 600 nM. In the case of `CCOC(=O)c1c(NC(=O)c2ccc(Cl)c(Cl)c2)nc(SC)n1Cc1ccccc1` [1H-imidazole-5-carboxylic acid, 4-[(3,4-dichlorobenzoyl)amino]-2-(methylthio)-1-(phenylmethyl)-, ethyl ester], the EC50 is reported as 2300 nM. For `COCC(C)(C)OC(=O)c1c(NC(=O)C2COc3ccccc3O2)nc(OC)n1-c1ccccc1` (stereo not shown) [2-methoxy-1,1-dimethylethyl 4-[(2,3-dihydro-1,4-benzodioxin-2-ylcarbonyl)amino]-2-methoxy-1-phenyl-1H-imidazole-5-carboxylate], the EC50 was 300 nM.
